Laboratory results reported in EPA's ToxValDB 9.5.

Key:
[1] = tested on: Rattus norvegicus; details: inhalation; for LEL / NEL: Crl:CD(SD) BR; for LOAEL / NOAEL: Crl:CD BR
[2] = tested on: Mus musculus; details: subchronic, duration: 90 days, inhalation, Crl:CD-1 (ICR) BR
[3] = reproduction developmental, duration: 9 days, F, generation: P0, P0: Ovary: Corpora Lutea
[4] = reproduction developmental, duration: 9 days, F, generation: P0, P0: Whole Body: Clinical Observations + P0: Whole Body: Maternal Body Weight Change
[5] = reproduction developmental, duration: 9 days, F, generation: P0, P0: Whole Body: Lethargic
[6] = subchronic, duration: 90 days, F, General Toxicity: Whole Body: Body Weight Change + General Toxicity: Whole Body: Clinical Observations + Hepatic: Liver: Alkaline …
[7] = subchronic, duration: 90 days, F, Nervous: Brain: Brain Weight, Absolute + Nervous: Brain: Brain Weight, Relative + Whole Body: Whole Body: Functional Observation Battery (…
[8] = subchronic, duration: 90 days, F, Liver: Alkaline Phosphatase (ALP), Blood
[9] = subchronic, duration: 90 days, M, General Toxicity: Whole Body: Body Weight Change + General Toxicity: Whole Body: Clinical Observations + Hepatic: Liver: Liver Weight, …
[10] = subchronic, duration: 90 days, M, Nervous: Brain: Brain Weight, Absolute + Nervous: Brain: Brain Weight, Relative + Whole Body: Whole Body: Functional Observation Battery (…
[11] = subchronic, duration: 90 days, M, Blood: Triglycerides (TRIG), Blood + Whole Body: Function Observation Battery (FOB)
[12] = F, General Toxicity: Whole Body: Body Weight Change + General Toxicity: Whole Body: Clinical Observations + General Toxicity: Whole Body: …
[13] = F, Nervous: Brain: Brain Weight, Absolute + Nervous: Brain: Brain Weight, Relative
[14] = M, Blood: Triglycerides (TRIG), Blood + Whole Body: Mortality
[15] = M, General Toxicity: Whole Body: Body Weight Change + General Toxicity: Whole Body: Clinical Observations + General Toxicity: Whole Body: …
[16] = M, Nervous: Brain: Brain Weight, Absolute + Nervous: Brain: Brain Weight, Relative

FC(Cl)C(F)(F)F (centres undefined) [2-Chloro-1,1,1,2-tetrafluoroethane]
27900 mg/m3: NEL [1, 3] | LEL ([1]; reproduction developmental, duration: 9 days, F, generation: P0, P0: Uterus: Implantation) | NOAEL [1, 7] | NOAEL [1, 10] | NEL [1, 11] | NOAEL [2, 13] | LEL ([2]; F, Whole Body: Mortality) | NEL [2, 14] | LEL ([2]; M, Heart: Heart Weight, Relative + Whole Body: Body Weight Change) | NOAEL [2, 16]
83700 mg/m3: LEL [1, 3] | NEL [1, 4] | LOAEL ([1]; subchronic, duration: 90 days, F, Cardiovascular: Heart: Heart Weight, Absolute + Cardiovascular: Heart: Heart Weight, Relative + Endocrine: Adrenal: Adrenal Gland Weight, …) | NOAEL [1, 6] | LOAEL [1, 7] | NEL [1, 8] | LOAEL ([1]; subchronic, duration: 90 days, M, Cardiovascular: Heart: Heart Weight, Absolute + Cardiovascular: Heart: Heart Weight, Relative + Endocrine: Adrenal: Adrenal Gland Weight, …) | NOAEL [1, 9] | LOAEL [1, 10] | LEL [1, 11] | LOAEL ([2]; F, Cardiovascular: Heart: Heart Weight, Absolute + Cardiovascular: Heart: Heart Weight, Relative + Endocrine: Adrenal: Adrenal Gland Weight, …) | NOAEL [2, 12] | LOAEL [2, 13] | LEL [2, 14] | LOAEL ([2]; M, Cardiovascular: Heart: Heart Weight, Absolute + Cardiovascular: Heart: Heart Weight, Relative + Endocrine: Adrenal: Adrenal Gland Weight, …) | NOAEL [2, 15] | LOAEL [2, 16]
279000 mg/m3: NEL ([1]; reproduction developmental, duration: 9 days, F, generation: P0, P0: Uterus: Implantation + P0: Uterus: Resorptions, Early + P0: Uterus: Resorptions, Total + P0: Whole Body: Maternal Body Weight Change + …) | NEL ([1]; reproduction developmental, duration: 9 days, F, generation: P0, P0: Uterus: Post-Implantation Loss + P0: Uterus: Pre-Implantation Loss + P0: Uterus: Resorptions, Mean/Litter + P0: Whole Body: Delivered …) | LEL [1, 4] | LEL [1, 5] | NEL ([1]; reproduction developmental, duration: 9 days, M/F, generation: P0, P0: Uterus: Fetuses, Dead + P0: Uterus: Fetuses, Live + P0: Whole Body: Body Weight, Fetal) | NEL ([1]; short-term, duration: 4 weeks, F, Adrenal: Adrenal Gland Weight, Absolute + Adrenal: Adrenal Gland Weight, Relative + Bladder: Urinary Bladder Calculus + Bladder: Urinary …) | NEL ([1]; short-term, duration: 4 weeks, M, Adrenal: Adrenal Gland Weight, Absolute + Adrenal: Adrenal Gland Weight, Relative + Blood: Abnormal Lymphocytes + Blood: Band Neutrophils + …) | LOAEL [1, 6] | NEL ([1]; subchronic, duration: 90 days, F, Adrenal: Adrenal Gland Weight, Absolute + Adrenal: Adrenal Gland Weight, Relative + Blood: Hematology, Unspecified + Brain: Brain Weight, …) | LEL [1, 8] | LOAEL [1, 9] | NEL ([1]; subchronic, duration: 90 days, M, Adrenal: Adrenal Gland Weight, Absolute + Adrenal: Adrenal Gland Weight, Relative + Blood: Hematology, Unspecified + Brain: Brain Weight, …) | NEL ([2]; F, Adrenal: Adrenal Gland Weight, Absolute + Adrenal: Adrenal Gland Weight, Relative + Blood: Hematology, Unspecified + Brain: Brain Weight, …) | LOAEL [2, 12] | NEL ([2]; M, Adrenal: Adrenal Gland Weight, Absolute + Adrenal: Adrenal Gland Weight, Relative + Blood: Hematology, Unspecified + Brain: Brain Weight, …) | LOAEL [2, 15]
55800 mg/m3: NEL [1, 5]
